# Results taken from US5925667A, “Pyrrolidine derivative, anti-ulcer drug, and antibacterial drug” (Shiseido Co., Ltd., priority 1997, dated 1999).
# How the values were obtained:
# [1] = MTT: Cell Damaging and Protecting Effect Test; format: cell-based, male Japanese White rabbit; conditions: rabbit, gastric mucosa cells, final concentration 10^-4 M, smaller value is better, read-out: cell damaging rate (MTT)
# Text: MTT: Cell Damaging and Protecting Effect Test
# It is confirmed that there is no toxicity in cell level. Those having a toxicity in cell level are inappropriate as an anti-ulcer drug.
# A male Japanese White rabbit (2.5 to 3 kg) was anesthetized to death by Nembutal™ and, immediately thereafter, its stomach was removed. The greater curvature of the stomach was incised so as to remove the stomach contents therefrom. After the mucosal surface was washed with HBSS (Hanks' Balanced Salt Solution), the stomach in ice-cooled HBSS was transferred to a laboratory. Then, after the pyloric antrum was removed, the gastric corpus mucosa was separated by a spatula and then minced into 2 to 3 mm^3 pieces in BME (Basal Medium Eagle). Thereafer, these pieces were shaken at 120 to 130 cycles/minute for 15 minutes at 37° C. in BME 60 ml containing 280 U/ml of dispase and 30 to 50 U/ml of collagenase. Here, the concentration of collagenase was appropriately changed for each lot in view of the state of cells. The pieces were washed twice with EBSS (Earle's Balanced Salt Solution) containing 1 mM of EDTA and then shaken in MEM (Minimum Essential Medium) containing 1 mM of EDTA at 37° C. for 5 minutes. Subsequently, they were shaken in the dispase and collagenase having the same concentrations as those mentioned above for 15 minutes so as to remove the supernatant and then further shaken at 37° C. for 50 to 60 minutes at 120 to 130 cycles/minute. Then, after being washed twice with HBSS, Ham F12 containing 2% of Ultrocer G™ was used to attain the concentration of 1×10^6 cells/ml. Thus formed suspension was dispensed in each well of a 96-well plate by 200 μl. The plate was incubated in the atmosphere composed of 5% CO2 and 95% air at 37° C. for three days so as to attain a confluent state and then subjected to MTT assay.
# The sample compound was dissolved in DMSO so as to attain a concentration of 10^-2 M and then diluted with HBSS containing 2% of Ultrocer G™ so as to attain a final concentration of 10^-4 M. To each group, which 8 wells were used for, 10 μl of MTT reagent was added immediately after 100 μl of the medium in each well was exchanged for same volume of the resulting solution of the sample compound. After being incubated in an atmosphere composed of 5% CO2 and 95% air at 37° C. for 4 hours, thus formed solution was centrifuged and then its supernatant was discarded. Subsequently, 100 μl of 100% ethanol was added to the residue so as to dissolve MTT formazan. Then, the absorbance (OD: 570 to 630) was measured by a microplate reader. This method utilizes a phenomenon in which MTT is changed to MTT formazan only by mitochondria of living cells so as to change color.
# The cell damaging or cell protecting effect of the sample compound at the final concentration of 10^-4 M was expressed as cell damaging rate (%) as follows:
# cell damaging rate (%)=(1-(absorbance in sample group/absorbance in control group))×100
# Accordingly, the smaller value is better in the cell damaging rate.
# stress ulcer = assay: WIS: Restraint and Water Immersion Stress-Induced Ulcer Inhibition Test; format: in vivo, male Crj:SD or Slc:SD rats; conditions: rat, 100 mg/kg oral, 7 h water immersion stress; read-out: ulcer formation inhibitory rate (WIS)
# Method: WIS: Restraint and Water Immersion Stress-Induced Ulcer Inhibition Test
# The degree of inhibition of the stress ulcer formation is tested.
# Male Crj:SD or Slc:SD rats (6 to 7-week-old) were fasted overnight, but allowed free access to water. Each group has 5 to 8 of these rats. The sample compound was dissolved or suspended in an aqueous solution of 0.3% sodium carboxymethylcellulose or 0.05% Tween 80 and then was orally administered (100 mg/10 ml/kg. To a control group, the vehicle was administered. 10 minutes later, the rats were placed in a stress cage and immersed to the level of xipfoid process in a water bath (21° C.) for 7 hours. At the end of the stress, the rats were sacrificed by inhalation of ether or carbon dioxide. Then, the stomach of each was removed, inflated by injecting 10 ml of 5% formalin neutral buffer solution, and immersed in 1% formalin neutral buffer solution for 30 minutes or more to be fixed. The stomach was incised along the greater curvature and then the length of each erosion in the glandular portion was determined under dissecting microscope. The sum of the length of erosions per stomach was defined as ulcer index (UI).
# The effect obtained when 100 mg/kg of the sample compound had been administered was expressed as ulcer formation inhibitory rate (%) as follows:
# ulcer formation inhibitory rate (%)=(1-(UI in sample group/UI in control group))×100
smiles,measurement,setting,value
"CCN1CCCC1CNC(=O)c1cc(OCC=C(C)C)ccc1OCC=C(C)C (stereo not drawn) [Example 6, 1-ethyl-2-(2,5-diprenyloxybenzoylaminomethyl)pyrrolidine]","cytotoxicity at 4 h, 100 µM",[1],34%
same,inhibition in vivo at 100 mg/kg,stress ulcer,84%
"CCN1CCCC1CNC(=O)c1ccc(OCC=C(C)C)c(OCC=C(C)C)c1 (stereo not drawn) [Example 7, 1-ethyl-2-(3,4-diprenyloxybenzoylaminomethyl)pyrrolidine]","cytotoxicity at 4 h, 100 µM",[1],28%
same,inhibition in vivo at 100 mg/kg,stress ulcer,92%
"CCN1CCCC1CNC(=O)c1cc(OC/C=C(\C)CCC=C(C)C)ccc1OC/C=C(\C)CCC=C(C)C (stereo not drawn) [Example 10, 1-ethyl-2-(2,5-digeranyloxybenzoylaminomethyl)pyrrolidine]","cytotoxicity at 4 h, 100 µM",[1],15%
same,inhibition in vivo at 100 mg/kg,stress ulcer,74%
